{"source": "patent US6506580B1", "about": "“Splice variants for human 5-HT4 serotonin receptor and their applications, in particular for screening” (Institut National de la Sante et de la Recherche Medicale …, priority 1997, dated 2003)", "set-up_in_all_cases": "The entire coding region of the cDNAs of 5-HT4(a), 5-HT4(b), 5-HT4(c) and 5-T4(d) was subcloned; expressed in transfected cells; host or cells: COS-7 cells, transient, pRC/CMV vector; cDNA amplified from human brain and ileum RNA", "key": {"receptor 5-HT4(d)": {"molecular_target": "receptor 5-HT4(d) (Homo sapiens, UniProt Q13639)", "sequence (Q13639 1-360 isoform Q13639-3)": "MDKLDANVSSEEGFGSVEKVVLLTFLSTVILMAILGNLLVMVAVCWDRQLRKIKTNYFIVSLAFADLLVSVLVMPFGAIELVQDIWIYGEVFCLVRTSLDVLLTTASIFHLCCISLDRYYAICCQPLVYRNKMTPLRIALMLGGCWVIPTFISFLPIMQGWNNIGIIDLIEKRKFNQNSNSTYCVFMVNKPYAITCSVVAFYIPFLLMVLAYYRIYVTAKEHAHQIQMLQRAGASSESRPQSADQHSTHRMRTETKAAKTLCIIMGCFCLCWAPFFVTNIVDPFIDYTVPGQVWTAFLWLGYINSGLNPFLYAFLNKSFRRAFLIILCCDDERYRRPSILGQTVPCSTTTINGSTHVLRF", "assay": "[3H]GR113808 radioligand binding, membranes of transiently transfected COS-7 cells", "details": "read-out: Ki, competition for [3H]GR113808 binding", "protocol": "(§1) The entire coding region of the cDNAs of 5-HT4(a), 5-HT4(b), 5-HT4(c) and 5-T4(d) was subcloned into a mammalian expression vector pRC/CMV (Invitrogen, Carlsbad, Calif.). The transfections were carried out using polyethyleneimine (PEI) as described in Boussif et al. (1995). The cells were transfected using a mixture of DNA and of PEI in a ratio of 20 μmol of PEI/mg of DNA in 0.9% NaCl. For the radioligand binding assays, the COS-7 cells were seeded into culture flasks of 1.5×10^4 mm^2 one day before the transfection, at a density of 1×10^7 cells/flask, incubated for six hours with plasmid DNA (150 μg/flask) and collected 48 hours after transfection. For the measurement of cAMP formation, the COS-7 cells were seeded onto twelve-well plates one day before transfection, at a density of 5×10^5 cells/well, incubated for six hours with plasmid DNA (4 to 8 μg/well according to the experiments) and assayed 24 hours after the transfection. The cells transfected with the receptor 5-HT4 cDNA constructs were compared with the “blank”-transfected cells, which were exposed to the unmodified pRC/CMV plasmid.\n(§2) Each flask of cells intended for the radioligand binding assays was washed twice with a phosphate buffer (PBS). The cells were then scraped, collected and centrifuged at 300 g for five minutes. The pellet was resuspended in 2.5 ml of ice-cold HEPES buffer (50 mM, pH 7.4) and homogenized with an Ultraturax tissue grinder. The lysate was then centrifuged at 40,000 g for 20 minutes at 4° C. The resulting pellet was resuspended in 15 volumes of HEPES buffer (50 mM, pH 7.4). The membrane preparations were maintained in ice and used within two hours for radioligand binding assays. The protein concentrations were determined by the method of Lowry et al., 1951, using bovine serum albumin as standard.\n(§3) The saturation studies were performed using [^3H] GR113808 at 9 different concentrations ranging from 0.01 to 3.5 nM. The tubes were incubated at 25° C. for 30 minutes. The reaction-was stopped by rapid filtration, under vacuum, through Whatman GF/B filter paper using the Brandel 48R cell harvester. The filters were presoaked in a solution of PEI (0.1%) to reduce the binding to the filters. The filters were then washed with an ice-cold buffer (50 mM Tris-HCl, pH 7.4) and placed in 4 ml of “ready safe” scintillation cocktail (Beckman, Fullerton, Calif.) overnight. The radioactivity was measured using a Beckman LS 6500 C liquid scintillation counter. The binding data were analysed by computer-assisted nonlinear regression analysis (Graph Pad Prism Program, Graph Pad Software, Inc., San Diego, Calif.).\n(§4) The experiments correspond to the competition of various compounds for [^3H]GR113808 binding to membranes of transiently transfected COS-7 cells. […] The estimations of affinity are given as Ki values in nM, and are determined from IC50 values obtained by computer-assisted nonlinear curve analysis (GraphPad, Prism Software). The Ki values are representative of at least two determinations."}, "receptor 5-HT4(c) [1]": {"molecular_target": "T1, receptor 5-HT4(c) (Homo sapiens, UniProt Q13639)", "T1 sequence (Q13639 1-380 isoform Q13639-4)": "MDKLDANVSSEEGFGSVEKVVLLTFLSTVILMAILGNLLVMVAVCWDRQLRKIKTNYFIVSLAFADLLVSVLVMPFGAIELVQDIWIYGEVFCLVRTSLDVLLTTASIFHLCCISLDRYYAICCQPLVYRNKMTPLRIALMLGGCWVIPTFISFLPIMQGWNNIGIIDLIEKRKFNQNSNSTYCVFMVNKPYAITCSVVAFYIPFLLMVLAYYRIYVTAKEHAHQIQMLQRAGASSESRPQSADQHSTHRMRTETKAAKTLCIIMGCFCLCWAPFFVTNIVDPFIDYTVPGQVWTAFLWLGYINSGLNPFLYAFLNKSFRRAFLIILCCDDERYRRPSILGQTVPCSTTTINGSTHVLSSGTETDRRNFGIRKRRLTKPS", "assay": "[3H]GR113808 radioligand binding, membranes of transiently transfected COS-7 cells", "details": "read-out: Ki, competition for [3H]GR113808 binding", "protocol": "as §1, §2, §3, §4"}, "receptor 5-HT4(c) [2]": {"molecular_target": "T1, receptor 5-HT4(c)", "assay": "cAMP formation in transiently transfected COS-7 cells", "assay_type": "cell-based", "details": "for decrease of the basal cAMP values: 1 μM", "protocol": "as §1\nTo measure intracellular cAMP accumulation, the transiently transfected COS-7 cells were incubated, 24 hours after transfection, in Dulbecco's modified Eagle medium (DMEM) containing 5 mM theophylline, 10 mM HEPES and 10 μM pargyline for 15 minutes at 37° C., in the presence of 5% CO2. […] The reaction was stopped by aspiration of the medium and addition of 500 μl of ice-cold ethanol. After one hour at room temperature, the cells were scraped, and everything was collected and freeze-dried. The pellet was resuspended in 350 μl of PBS and centrifuged for 5 min at 300 g. The cAMP was quantified in the supernatant using a radioimmunological assay (E.R.I.A. assay kit from Pasteur Diagnostics 79830). Student's t tests were carried out using the program Quick TEst.\nML10375 is capable of reducing the cAMP levels in the cells expressing the 5-HT4(c) and 5-HT4(d) isoforms in the absence of any stimulation of the receptor by 5-HT4 agonists. To test the hypothesis that ML10375 may constitute a reverse agonist for the human receptor 5-HT4, the 5-HT4(c) isoform was overexpressed in COS-7 cells in order to increase the frequency of the spontaneously active state of the receptor. The COS-7 cells were transfected with 4 to 8 μg of plasmid DNA per well in order to obtain an increase in the expression levels of the receptor 5-HT4(c). […] (FIG. 6B)."}}, "data": [{"smiles": "COc1cc(N)c(Cl)cc1C(=O)OCCN1C[C@H](C)C[C@H](C)C1", "note": "[ML10375, 2-(cis-3,5-dimethyl-piperidino)ethyl 4-amino-5-chloro-2-methoxybenzoate]", "values": [{"measurement": "Ki", "setting": "receptor 5-HT4(d)", "result": "410 ± 100", "unit": "pM"}, {"measurement": "Ki", "setting": "receptor 5-HT4(c) [1]", "result": "610 ± 80", "unit": "pM"}, {"measurement": "antagonism of the stimulatory effect of 5-HT (1 μM) on the basal cAMP", "setting": "receptor 5-HT4(c) [2]; 4 μg of plasmid DNA, preincubation with 1 μM", "result": "antagonized"}, {"measurement": "effect of PTX treatment on the ML10375-induced reduction in basal cAMP", "setting": "receptor 5-HT4(c) [2]; 6 μg of plasmid DNA, ML10375 1 μM, PTX 100 ng/ml, 16-hour preincubation", "result": "did not significantly modify"}, {"measurement": "decrease in the basal cAMP level in the presence of 1 μM 5-HT", "setting": "receptor 5-HT4(c) [2]; 8 μg of plasmid DNA, preincubation with 1 μM", "result": 47, "unit": "%"}, {"measurement": "reduction of the basal cAMP levels", "setting": "receptor 5-HT4(c) [2]; COS-7, 1 μM, no agonist", "result": 21, "unit": "%"}, {"measurement": "decrease of the basal cAMP values", "setting": "receptor 5-HT4(c) [2]; COS-7 transfected with 4 μg of plasmid DNA", "result": 24, "unit": "%"}, {"measurement": "decrease of the basal cAMP values", "setting": "receptor 5-HT4(c) [2]; COS-7 transfected with 8 μg of plasmid DNA", "result": 62, "unit": "%"}]}]}
